In patent US7232690B1, “Method and device for detecting and isolating pharmacological compounds being contained in substance mixtures” (LTS Lohmann Therapie-Systeme AG, priority 1999, dated 2007):
One block for each molecule: values may come before it.

Columns and labels:
[1] = target: Thrombin (Homo sapiens, UniProt P00734); experiment: Thrombin inhibition constant (Ki); assay type: biochemical; details: read-out: Ki [μmol/l] Thrombin
[2] = test system: serine protease trypsin; experiment: Ultrafiltration target-binding test of non-equimolar amidinophenylalanine mixture with trypsin (Example 2); details: applied 6 8.4, 7 41.25, 10 2.5 μmol/l
Description: Incubation of the substance library and the inhibitor with thrombin took place at room temperature within 1 hour; solvent: 0.9% of NaCl in H2O. The separation of the protein-ligand complexes formed was accomplished by ultrafiltration (centrifugal). All filtration procedures and washes were carried out until dryness of the filters.
Filter: Microcon 10 (Amicon)
Centrifugation conditions: 9981×g, room temperature
Washing steps: 2×, each with 150 μl of 0.9% NaCl in H2O, 4° C.
Ultrafiltration and analysis of the filtrate were followed by washing steps and the liberation of the ligand (the active chemical substance) from the protein-ligand complex retained on the filter by treatment with 200 μl of water/methanol/TFA (49.5/49.5/1) at room temperature.
The blind sample (without thrombin) was treated analogously in all steps so that a comparison of the filtrates was possible. The filtrates obtained in all steps were dried by means of a speed-VAC concentrator, and later dissolved in the corresponding HPLC flow agent of defined amount applying ultrasound and agitation.
Identification of the ligands was accomplished by analytic HPLC: stationary phase Hypersil C 18 BDS, 3 μm, 150*0.3 mm, Fusica (LC Packings)—mobile phase: acetonitrile/water/TFA (35/65/0.01), isocratic, 5 μL/min, λ=[…].
The trypsin inhibitors of 3-amidinophenylalanine represented in the following by their structural formulae, were used as chemical substances, and the serine protease trypsin as target:
The experiments were performed as described in Example 1.

[3] = target: β2-adrenoreceptor (Homo sapiens, UniProt P07550); experiment: Ultrafiltration target-binding test of extract of taraxacum with β2-adrenoreceptor membrane preparation (Example 3)
[4] = Sample 351, no receptor, extract 1.5 mg (7.5 g/l)
[5] = Sample 355, receptor 1.04 pmol (5.2 nmol/l), extract 1.5 pmol (7.5 nmol/l)
[6] = Sample 356, receptor 1.04 pmol (5.2 nmol/l), extract 1.5 pmol (7.5 nmol/l)
[7] = Sample 360, no receptor, extract 0.3 mg (1.5 g/l)
[8] = Sample 361, receptor 1.04 pmol (5.2 nmol/l), extract 0.3 mg (1.5 g/l)
[9] = Sample 362, no receptor, extract 0.6 mg (3 g/l)
[10] = Sample 363, receptor 1.04 pmol (5.2 nmol/l), extract 0.6 mg (3 g/l)
[11] = Sample 364, no receptor, extract 1.0 mg (5.0 g/l)
[12] = Sample 365, receptor 1.04 pmol (5.2 nmol/l), extract 1.0 mg (5.0 g/l)
[13] = Sample 366, receptor 1.04 pmol (5.2 nmol/l), extract 1.5 mg (7.5 g/l)
[14] = Sample 367, receptor 1.04 pmol (5.2 nmol/l), extract 1.5 mg (7.5 g/l)
[15] = Sample 369, receptor 1.04 pmol (5.2 nmol/l), extract 1.5 mg (7.5 g/l)
[16] = Sample 373, receptor 1.04 pmol (5.2 nmol/l), extract 1.5 mg (7.5 g/l)
[17] = Sample 374, receptor 0.52 pmol (2.6 nmol/l), extract 1.5 mg (7.5 g/l)
[18] = Sample 375, receptor 0.26 pmol (1.3 nmol/l), extract 1.5 mg (7.5 g/l)

Chain of β2-adrenoreceptor (P07550 whole entry): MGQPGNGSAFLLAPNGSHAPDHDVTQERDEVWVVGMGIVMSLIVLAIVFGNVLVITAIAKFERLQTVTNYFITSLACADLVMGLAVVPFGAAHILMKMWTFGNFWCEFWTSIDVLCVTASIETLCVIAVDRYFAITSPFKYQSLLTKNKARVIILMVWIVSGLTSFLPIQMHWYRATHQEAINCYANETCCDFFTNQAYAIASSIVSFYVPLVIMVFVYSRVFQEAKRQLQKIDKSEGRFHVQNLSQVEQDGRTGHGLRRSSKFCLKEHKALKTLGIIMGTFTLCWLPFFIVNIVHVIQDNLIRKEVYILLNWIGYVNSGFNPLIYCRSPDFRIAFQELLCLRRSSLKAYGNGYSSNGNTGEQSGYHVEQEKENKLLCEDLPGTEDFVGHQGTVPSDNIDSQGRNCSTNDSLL

- Ki [1]: 0.065 µmol/L
- 1st Wash ([2]; Sample 261, without trypsin): 3.13 µmol/L
- 2nd Wash ([2]; Sample 261, without trypsin): 0.26 µmol/L
- Filtrate ([2]; Sample 261, without trypsin): 31.57 µmol/L
- Liberation ([2]; Sample 261, without trypsin): 0.13 µmol/L
- 1st Wash ([2]; Sample 262, trypsin 50 μmol/l): 3.68 µmol/L
- 2nd Wash ([2]; Sample 262, trypsin 50 μmol/l): 1.29 µmol/L
- Filtrate ([2]; Sample 262, trypsin 50 μmol/l): 22.22 µmol/L
- Liberation ([2]; Sample 262, trypsin 50 μmol/l): 8.49 µmol/L
SMILES: N=C(N)c1cccc(CC(NS(=O)(=O)c2ccc3ccccc3c2)C(=O)N2CCCCC2)c1 (stereo not drawn) [Substance 7]

SMILES: O=C(/C=C/c1ccc(O)c(O)c1)OC(C(=O)O)C(O)C(=O)O (stereo not drawn) [Substance L3, trans-caftarinic acid]
- 1st Wash [3, 4]: 51.0 nmol/L
- 2nd Wash [3, 4]: 8.0 nmol/L
- Filtrate [3, 4]: 740.3 nmol/L
- Liberation [3, 4]: 11.9 nmol/L
- 1st Wash [3, 5]: 88.8 nmol/L
- 2nd Wash [3, 5]: 12.9 nmol/L
- Filtrate [3, 5]: 353.5 nmol/L
- Liberation [3, 5]: 15.8 nmol/L
- 1st Wash [3, 6]: 79.0 nmol/L
- 2nd Wash [3, 6]: 9.9 nmol/L
- Filtrate [3, 6]: 961.9 nmol/L
- Liberation [3, 6]: 26.3 nmol/L
- 1st Wash [3, 7]: 22.7 nmol/L
- 2nd Wash [3, 7]: 0 nmol/L
- Filtrate [3, 7]: 411.5 nmol/L
- Liberation [3, 7]: 8.1 nmol/L
- 1st Wash [3, 8]: 16.5 nmol/L
- 2nd Wash [3, 8]: 29.6 nmol/L
- Filtrate [3, 8]: 537.0 nmol/L
- Liberation [3, 8]: 11.2 nmol/L
- 1st Wash [3, 9]: 20.5 nmol/L
- 2nd Wash [3, 9]: 5.6 nmol/L
- Filtrate [3, 9]: 650.1 nmol/L
- Liberation [3, 9]: 3.2 nmol/L
- 1st Wash [3, 10]: 54.4 nmol/L
- 2nd Wash [3, 10]: 0 nmol/L
- Filtrate [3, 10]: 736.9 nmol/L
- Liberation [3, 10]: 8.7 nmol/L
- 1st Wash [3, 11]: 36.9 nmol/L
- 2nd Wash [3, 11]: 3.0 nmol/L
- Filtrate [3, 11]: 1034.4 nmol/L
- Liberation [3, 11]: 5.3 nmol/L
- 1st Wash [3, 12]: 51.7 nmol/L
- 2nd Wash [3, 12]: 8.6 nmol/L
- Filtrate [3, 12]: 1221.4 nmol/L
- Liberation [3, 12]: 9.8 nmol/L
- 1st Wash [3, 13]: 102.8 nmol/L
- 2nd Wash [3, 13]: 2.3 nmol/L
- Filtrate [3, 13]: 2088.5 nmol/L
- Liberation [3, 13]: 7.6 nmol/L
- 1st Wash [3, 14]: 46.2 nmol/L
- 2nd Wash [3, 14]: 15.6 nmol/L
- Filtrate [3, 14]: 2310.8 nmol/L
- Liberation [3, 14]: 6.3 nmol/L
- 1st Wash [3, 15]: 90.8 nmol/L
- 2nd Wash [3, 15]: 41.8 nmol/L
- Filtrate [3, 15]: 2381.4 nmol/L
- Liberation [3, 15]: 7.0 nmol/L
- 1st Wash [3, 16]: 91.7 nmol/L
- 2nd Wash [3, 16]: 26.6 nmol/L
- Filtrate [3, 16]: 2450.0 nmol/L
- Liberation [3, 16]: 36.2 nmol/L
- 1st Wash [3, 17]: 44.0 nmol/L
- 2nd Wash [3, 17]: 7.4 nmol/L
- Filtrate [3, 17]: 2593.2 nmol/L
- Liberation [3, 17]: 25.3 nmol/L
- 1st Wash [3, 18]: 39.7 nmol/L
- 2nd Wash [3, 18]: 19.6 nmol/L
- Filtrate [3, 18]: 2252.1 nmol/L
- Liberation [3, 18]: 19.0 nmol/L

- 1st Wash [3, 4]: 15045 nmol/L
- 2nd Wash [3, 4]: 750.8 nmol/L
- Filtrate [3, 4]: 5970.7 nmol/L
- Liberation [3, 4]: 195.0 nmol/L
- 1st Wash [3, 5]: 451.4 nmol/L
- 2nd Wash [3, 5]: 100.4 nmol/L
- Filtrate [3, 5]: 1482.0 nmol/L
- Liberation [3, 5]: 707.0 nmol/L
- 1st Wash [3, 6]: 600.1 nmol/L
- 2nd Wash [3, 6]: 202.1 nmol/L
- Filtrate [3, 6]: 1848.6 nmol/L
- Liberation [3, 6]: 2199.1 nmol/L
- 1st Wash [3, 7]: 468.9 nmol/L
- 2nd Wash [3, 7]: 140.3 nmol/L
- Filtrate [3, 7]: 2935.2 nmol/L
- Liberation [3, 7]: 34.7 nmol/L
- 1st Wash [3, 8]: 146.5 nmol/L
- 2nd Wash [3, 8]: 124.3 nmol/L
- Filtrate [3, 8]: 1588.2 nmol/L
- Liberation [3, 8]: 138.1 nmol/L
- 1st Wash [3, 9]: 958.0 nmol/L
- 2nd Wash [3, 9]: 351.4 nmol/L
- Filtrate [3, 9]: 3446.6 nmol/L
- Liberation [3, 9]: 85.4 nmol/L
- 1st Wash [3, 10]: 248.3 nmol/L
- 2nd Wash [3, 10]: 142.0 nmol/L
- Filtrate [3, 10]: 1180.6 nmol/L
- Liberation [3, 10]: 257.0 nmol/L
- 1st Wash [3, 11]: 1377.0 nmol/L
- 2nd Wash [3, 11]: 627.8 nmol/L
- Filtrate [3, 11]: 3752.4 nmol/L
- Liberation [3, 11]: 151.3 nmol/L
- 1st Wash [3, 12]: 626.7 nmol/L
- 2nd Wash [3, 12]: 141.6 nmol/L
- Filtrate [3, 12]: 2291.6 nmol/L
- Liberation [3, 12]: 439.6 nmol/L
- 1st Wash [3, 13]: 620.0 nmol/L
- 2nd Wash [3, 13]: 181.5 nmol/L
- Filtrate [3, 13]: 5581.8 nmol/L
- Liberation [3, 13]: 504.8 nmol/L
- 1st Wash [3, 14]: 832.5 nmol/L
- 2nd Wash [3, 14]: 274.6 nmol/L
- Filtrate [3, 14]: 5159.0 nmol/L
- Liberation [3, 14]: 616.8 nmol/L
- 1st Wash [3, 15]: 478.1 nmol/L
- 2nd Wash [3, 15]: 341.9 nmol/L
- Filtrate [3, 15]: 7449.7 nmol/L
- Liberation [3, 15]: 674.0 nmol/L
- 1st Wash [3, 16]: 182.7 nmol/L
- 2nd Wash [3, 16]: 277.1 nmol/L
- Filtrate [3, 16]: 5562.6 nmol/L
- Liberation [3, 16]: 2096.1 nmol/L
- 1st Wash [3, 17]: 1062.4 nmol/L
- 2nd Wash [3, 17]: 476.6 nmol/L
- Filtrate [3, 17]: 8589.0 nmol/L
- Liberation [3, 17]: 1015.4 nmol/L
- 1st Wash [3, 18]: 921.1 nmol/L
- 2nd Wash [3, 18]: 433.9 nmol/L
- Filtrate [3, 18]: 10838.5 nmol/L
- Liberation [3, 18]: 279.9 nmol/L
SMILES: O=C(/C=C/c1ccc(O)c(O)c1)O[C@@H](C(=O)O)[C@@H](OC(=O)/C=C/c1ccc(O)c(O)c1)C(=O)O [Substance L6, trans-chicorinic acid]

SMILES: COc1cc(/C=C/C(=O)OC(C(=O)O)C(OC(=O)/C=C/c2ccc(O)c(OC)c2)C(=O)O)ccc1O (stereo not drawn) [Substance L7, trans-diferoyl-tartaric acid ester]
- 1st Wash [3, 4]: 748.2 nmol/L
- 2nd Wash [3, 4]: 145.5 nmol/L
- Filtrate [3, 4]: 3802.1 nmol/L
- Liberation [3, 4]: 22.7 nmol/L
- 1st Wash [3, 5]: 909.9 nmol/L
- 2nd Wash [3, 5]: 180.4 nmol/L
- Filtrate [3, 5]: 1539.6 nmol/L
- Liberation [3, 5]: 214.5 nmol/L
- 1st Wash [3, 6]: 1117.4 nmol/L
- 2nd Wash [3, 6]: 295.9 nmol/L
- Filtrate [3, 6]: 2183.1 nmol/L
- Liberation [3, 6]: 510.7 nmol/L
- 1st Wash [3, 7]: 129.6 nmol/L
- 2nd Wash [3, 7]: 6.6 nmol/L
- Filtrate [3, 7]: 1268.8 nmol/L
- Liberation [3, 7]: 8.6 nmol/L
- 1st Wash [3, 8]: 129.6 nmol/L
- 2nd Wash [3, 8]: 6.6 nmol/L
- Filtrate [3, 8]: 1268.8 nmol/L
- Liberation [3, 8]: 8.6 nmol/L
- 1st Wash [3, 9]: 176.5 nmol/L
- 2nd Wash [3, 9]: 33.7 nmol/L
- Filtrate [3, 9]: 1423.2 nmol/L
- Liberation [3, 9]: 7.5 nmol/L
- 1st Wash [3, 10]: 76.4 nmol/L
- 2nd Wash [3, 10]: 104.2 nmol/L
- Filtrate [3, 10]: 1740.7 nmol/L
- Liberation [3, 10]: 16.9 nmol/L
- 1st Wash [3, 11]: 92.7 nmol/L
- 2nd Wash [3, 11]: 30.1 nmol/L
- Filtrate [3, 11]: 1829.6 nmol/L
- Liberation [3, 11]: 89.6 nmol/L
- 1st Wash [3, 12]: 74.0 nmol/L
- 2nd Wash [3, 12]: 11.2 nmol/L
- Filtrate [3, 12]: 2746.8 nmol/L
- Liberation [3, 12]: 111.9 nmol/L
- 1st Wash [3, 13]: 1425.3 nmol/L
- 2nd Wash [3, 13]: 213.1 nmol/L
- Filtrate [3, 13]: 4261.6 nmol/L
- Liberation [3, 13]: 168.2 nmol/L
- 1st Wash [3, 14]: 1509.0 nmol/L
- 2nd Wash [3, 14]: 199.2 nmol/L
- Filtrate [3, 14]: 6243.7 nmol/L
- Liberation [3, 14]: 232.9 nmol/L
- 1st Wash [3, 15]: 986.8 nmol/L
- 2nd Wash [3, 15]: 221.7 nmol/L
- Filtrate [3, 15]: 3505.8 nmol/L
- Liberation [3, 15]: 378.7 nmol/L
- 1st Wash [3, 16]: 1176.5 nmol/L
- 2nd Wash [3, 16]: 285.4 nmol/L
- Filtrate [3, 16]: 4900.2 nmol/L
- Liberation [3, 16]: 847.8 nmol/L
- 1st Wash [3, 17]: 627.7 nmol/L
- 2nd Wash [3, 17]: 200.9 nmol/L
- Filtrate [3, 17]: 5661.6 nmol/L
- Liberation [3, 17]: 538.8 nmol/L
- 1st Wash [3, 18]: 631.3 nmol/L
- 2nd Wash [3, 18]: 112.3 nmol/L
- Filtrate [3, 18]: 4921.4 nmol/L
- Liberation [3, 18]: 154.4 nmol/L
